We go through 5 compounds from US12240828B2, “Heteroaromatic compounds as vanin inhibitors” (Boehringer Ingelheim International GmbH, priority 2018, dated 2025).

The target of assay [1] is T1, FLAG-tagged Vanin-1 (AA 22-493, T26I) (Homo sapiens, UniProt O95497, T26I).
T1 construct: FLAG-tagged Vanin-1 (AA 22-493, T26I, produced internally); FLAG; made in house
T1 sequence (O95497 22-493 T26I): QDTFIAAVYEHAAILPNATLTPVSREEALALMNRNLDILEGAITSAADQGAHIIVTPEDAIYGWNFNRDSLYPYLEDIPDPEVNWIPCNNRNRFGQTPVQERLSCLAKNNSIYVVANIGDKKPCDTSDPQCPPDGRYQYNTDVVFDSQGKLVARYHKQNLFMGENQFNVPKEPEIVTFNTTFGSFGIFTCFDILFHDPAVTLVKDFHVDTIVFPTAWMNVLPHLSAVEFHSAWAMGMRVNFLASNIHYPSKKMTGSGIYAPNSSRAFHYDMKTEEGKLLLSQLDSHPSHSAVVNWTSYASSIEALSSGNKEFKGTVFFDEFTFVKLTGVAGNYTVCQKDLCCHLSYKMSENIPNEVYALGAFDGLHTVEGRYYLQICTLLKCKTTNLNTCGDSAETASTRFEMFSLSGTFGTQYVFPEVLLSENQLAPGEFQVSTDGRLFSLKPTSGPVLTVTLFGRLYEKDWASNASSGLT
Put plainly: Vanin-1 enzymatic assay. The class given is biochemical. The settings on record: 0.1 nM Vanin-1, 3 μM D-pantethine, pantothenic acid formation by RapidFire MS; geometric mean if multiple measurements; read-out: VNN-1 IC50.

Assay [2] has as its system Pantetheinase (vanin). Put plainly: Human Whole Blood assay. The assay is classed as cell-based. As to conditions: pantethine substrate, pantothenic acid formation by RapidFire MS, read-out: HWB IC50.

As to `CC(=O)N(C)[C@H]1CCN(C(=O)c2ccc(N[C@@H](C)c3ccc(C(F)(F)F)nc3)nc2)C1` [Example 9.1, N-Methyl-N-[(3S)-1-(6-{[(1S)-1-[6-(trifluoromethyl)pyridin-3-yl]ethyl]amino}pyridine-3-carbonyl)pyrrolidin-3-yl]acetamide], the figures for the half-maximal inhibitory concentration (IC50) in assay [1] and in assay [2] were 0.39 nM and 2.78 nM, respectively.

With `CC(=O)N(C)[C@H]1CCN(C(=O)c2ccc(N[C@@H](C)c3cccc(C(F)(F)F)c3)nc2)C1` [Example 9.3], the values for the half-maximal inhibitory concentration (IC50) in assay [1] and in assay [2] were 0.17 nM and 4.28 nM, respectively.

Take `CC(=O)N(C)[C@H]1CCN(C(=O)c2ccc(N[C@@H](C)c3ccc(Cl)cc3)nc2)C1` [Example 9.4]: the values for the IC50 in assay [1] and in assay [2] were 0.27 nM and 4.23 nM, respectively.

For `CC(=O)N(C)[C@H]1CCN(C(=O)c2ccc(N[C@@H](C)c3ccc(F)cc3)nc2)C1` [Example 9.5], the figures for the IC50 in assay [1] and in assay [2] were 0.4 nM and 2.19 nM, respectively.

Regarding `CC(=O)N(C)[C@H]1CCN(C(=O)c2ccc(N[C@@H](C)c3ccc(F)cc3F)nc2)C1` [Example 9.6], the 50% inhibitory concentration (IC50) in assay [1] was determined as 0.42 nM; in assay [2] it was 5.03 nM.

What is called IC50 is the midpoint of a concentration-inhibition curve.
